# Where two headings read alike, the source gives them in different places. Positions of bridges follow the written chain, without caps; N, C: chain ends. Residues, ends and D or L forms follow the SMILES beside them.
# Assays:
# [1] = test system: Pseudomonas aeruginosa (PSA, ATCC 27883); experiment: Synergy checkerboard assay (FIC index); assay type: cell-based; details: Pseudomonas aeruginosa (ATCC 27883), antibiotic alone; for MIC: ATCC27883, 24 h
# [2] = test system: E. coli
# [3] = test system: Escherichia coli (E. Coli, ATCC 25922)
# [4] = test system: Escherichia coli (ATCC BAA-2452)
# [5] = test system: Acinetobacter baumannii (ATCC BAA-1605)
# [6] = test system: Klebsiella pneumoniae (KPC, ATCC BAA-1705); details: Klebsiella pneumoniae (ATCC BAA-1705), antibiotic alone; for MIC of antibiotics: Table 26
# [7] = test system: Escherichia coli (E. Coli, ATCC 25922); details: Escherichia coli (ATCC 25922), antibiotic alone
# [8] = test system: Klebsiella pneumoniae (KPC, ATCC BAA-1705)
# [9] = test system: Pseudomonas aeruginosa (ATCC 10145)
# [10] = test system: Klebsiella pneumoniae ATCC 13883
# [11] = test system: KPC
# [12] = test system: Methicillin-resistant Staphylococcus aureus MRSA (ATCC BAA-1556)
# [13] = test system: PSA
# [14] = test system: Pseudomonas aeruginosa (ATCC BAA-1744)
# [15] = test system: Pseudomonas aeruginosa (PSA, ATCC 27883)
# [16] = test system: Escherichia coli (E. Coli, ATCC 25922); experiment: microbe, parasite or virus in culture; details: ATCC25922, 24 h
# [17] = test system: Klebsiella pneumoniae (KPC, ATCC BAA-1705); experiment: microbe, parasite or virus in culture; details: ATCCBAA1705, 24 h
# [18] = test system: Klebsiella pneumoniae (KPC, ATCC BAA-1705); experiment: microbe, parasite or virus in culture; details: ATCCBAA1705, 24 h, read-out: MIC of antibiotic
# [19] = test system: Pseudomonas aeruginosa (PSA, ATCC 27883); experiment: microbe, parasite or virus in culture; details: ATCC27883, 24 h
# [20] = test system: Bacillus subtilis (ATCC-6633)
# [21] = test system: Bacillus cereus (ATCC-13061)
# [22] = test system: Enterococcus faecium ATCC 700221; details: ATCC 700221
# [23] = test system: Enterococcus faecium ATCC 27270; details: ATCC 27270
# [24] = test system: MRSA
# [25] = test system: Enterococcus faecalis ATCC 29212; details: ATCC 29212
# [26] = test system: Staphylococcus aureus ATCC 29213
# [27] = test system: Enterococcus faecalis ATCC 51575; details: ATCC 51575
# [28] = test system: Methicillin-resistant Staphylococcus aureus MRSA (ATCC BAA-1556); experiment: microbe, parasite or virus in culture; details: ATCCBAA1556|MRSA, 24 h
# [29] = Table 28, IFX-031, antibiotics alone and PHY-MIX (1:1 w/w)
# [30] = Table 29, [R6W4] (IFX-318), antibiotics alone and PHY-MIX (1:1 w/w)
# [31] = Table 30, [R5W4K] (IFX-315), antibiotics alone and PHY-MIX (1:1 w/w)
# [32] = Table 31, [R5W4] (IFX-301), antibiotics alone and PHY-MIX (1:1 w/w)
# [33] = read-out: Escherichia coli (ATCC 25922) MIC, Table 28, IFX-031, antibiotics alone and PHY-MIX (1:1 w/w)
# [34] = read-out: Escherichia coli (ATCC 25922) MIC, Table 29, [R6W4] (IFX-318), antibiotics alone and PHY-MIX (1:1 w/w)
# [35] = read-out: Escherichia coli (ATCC 25922) MIC, Table 30, [R5W4K] (IFX-315), antibiotics alone and PHY-MIX (1:1 w/w)
# [36] = read-out: Escherichia coli (ATCC 25922) MIC, Table 31, [R5W4] (IFX-301), antibiotics alone and PHY-MIX (1:1 w/w)
# [37] = read-out: Klebsiella pneumoniae (ATCC BAA-1705) MIC, Table 28, IFX-031, antibiotics alone and PHY-MIX (1:1 w/w)
# [38] = read-out: Klebsiella pneumoniae (ATCC BAA-1705) MIC, Table 29, [R6W4] (IFX-318), antibiotics alone and PHY-MIX (1:1 w/w)
# [39] = read-out: Klebsiella pneumoniae (ATCC BAA-1705) MIC, Table 30, [R5W4K] (IFX-315), antibiotics alone and PHY-MIX (1:1 w/w)
# [40] = read-out: Klebsiella pneumoniae (ATCC BAA-1705) MIC, Table 31, [R5W4] (IFX-301), antibiotics alone and PHY-MIX (1:1 w/w)
# [41] = read-out: Pseudomonas aeruginosa (ATCC 27883) MIC, Table 28, IFX-031, antibiotics alone and PHY-MIX (1:1 w/w)
# [42] = read-out: Pseudomonas aeruginosa (ATCC 27883) MIC, Table 29, [R6W4] (IFX-318), antibiotics alone and PHY-MIX (1:1 w/w)
# [43] = read-out: Pseudomonas aeruginosa (ATCC 27883) MIC, Table 30, [R5W4K] (IFX-315), antibiotics alone and PHY-MIX (1:1 w/w)
# [44] = read-out: Pseudomonas aeruginosa (ATCC 27883) MIC, Table 31, [R5W4] (IFX-301), antibiotics alone and PHY-MIX (1:1 w/w)
compound,measurement,setting,value
Polymyxin,MIC of antibiotic,[1]; Table 25,1 µg/mL
same,MIC of antibiotic,[1]; Table 26,1 µg/mL
same,antibiotic MIC,[1]; Table 27,1 µg/mL
same,MIC,"[2]; Table 35, E. coli ATCC 25922",2 µg/mL
same,MIC,"[2]; Table 36, E. coli ATCC 25922",2 µg/mL
same,Escherichia coli (ATCC 25922) MIC,[3]; [29],2 µg/mL
same,Escherichia coli (ATCC 25922) MIC,[3]; [30],2 µg/mL
same,Escherichia coli (ATCC 25922) MIC,[3]; [31],2 µg/mL
same,Escherichia coli (ATCC 25922) MIC,[3]; [32],2 µg/mL
same,MIC,"[4]; Table 35, Escherichia coli (ATCC BAA-2452)",1 µg/mL
same,MIC,"[4]; Table 36, Escherichia coli (ATCC BAA-2452)",1 µg/mL
same,MIC,"[5]; Table 35, Acinetobacter baumannii (ATCC BAA-1605)",1 µg/mL
same,MIC,"[5]; Table 36, Acinetobacter baumannii (ATCC BAA-1605)",1 µg/mL
same,MIC of antibiotic,[6],1 µg/mL
same,MIC of antibiotic,[6]; Table 25,1 µg/mL
same,MIC of antibiotics,[6],1 µg/mL
same,Polymyxin MIC,[6]; Table 27,0.5 µg/mL
same,MIC of antibiotic,[7],2 µg/mL
same,MIC of antibiotic,[7]; Table 25,2 µg/mL
same,MIC of antibiotic,[7]; Table 26,2 µg/mL
same,Polymyxin MIC,[7]; Table 27,2 µg/mL
same,Klebsiella pneumoniae (ATCC BAA-1705) MIC,[8]; [29],1 µg/mL
same,Klebsiella pneumoniae (ATCC BAA-1705) MIC,[8]; [30],1 µg/mL
same,Klebsiella pneumoniae (ATCC BAA-1705) MIC,[8]; [31],1 µg/mL
same,Klebsiella pneumoniae (ATCC BAA-1705) MIC,[8]; [32],1 µg/mL
same,MIC,"[9]; Table 35, Pseudomonas aeruginosa (ATCC 10145)",2 µg/mL
same,MIC,"[9]; Table 36, Pseudomonas aeruginosa (ATCC 10145)",2 µg/mL
same,MIC,"[10]; Table 35, Klebsiella pneumonia (ATCC 13883)",1 µg/mL
same,MIC,"[10]; Table 36, Klebsiella pneumonia (ATCC 13883)",1 µg/mL
same,MIC,"[11]; Table 35, Klebsiella pneumoniae (ATCC BAA-1705)",0.5 µg/mL
same,MIC,"[11]; Table 36, Klebsiella pneumoniae (ATCC BAA-1705)",0.5 µg/mL
same,MRSA (ATCC BAA-1556) MIC,[12]; [29],64 µg/mL
same,MRSA (ATCC BAA-1556) MIC,[12]; [30],64 µg/mL
same,MRSA (ATCC BAA-1556) MIC,[12]; [31],64 µg/mL
same,MRSA (ATCC BAA-1556) MIC,[12]; [32],64 µg/mL
same,MIC,"[13]; Table 35, P. aeruginosa ATCC 27883",1 µg/mL
same,MIC,"[13]; Table 36, P. aeruginosa ATCC 27883",1 µg/mL
same,MIC,"[14]; Table 35, Pseudomonas aeruginosa (ATCC BAA-1744)",2 µg/mL
same,MIC,"[14]; Table 36, Pseudomonas aeruginosa (ATCC BAA-1744)",2 µg/mL
same,Pseudomonas aeruginosa (ATCC 27883) MIC,[15]; [29],1 µg/mL
same,Pseudomonas aeruginosa (ATCC 27883) MIC,[15]; [30],1 µg/mL
same,Pseudomonas aeruginosa (ATCC 27883) MIC,[15]; [31],1 µg/mL
same,Pseudomonas aeruginosa (ATCC 27883) MIC,[15]; [32],1 µg/mL
C[C@H]1COc2c(N3CCN(C)CC3)c(F)cc3c(=O)c(C(=O)O)cn1c23 [Levofloxacin],MIC,[1]; Table 25,1 µg/mL
same,MIC of antibiotic,[1]; Table 26,1 µg/mL
same,MIC,[16]; [33],16 µg/mL
same,MIC,[16]; [34],64 µg/mL
same,MIC,[16]; [35],64 µg/mL
same,MIC,[16]; [36],64 µg/mL
same,MIC of antibiotic,[6],64 µg/mL
same,MIC of antibiotic,[7],64 µg/mL
same,MIC of antibiotic,[7]; Table 25,64 µg/mL
same,MIC of antibiotic,[7]; Table 26,64 µg/mL
same,MIC,[17]; [37],32 µg/mL
same,MIC,[17]; [38],64 µg/mL
same,MIC,[17]; [39],64 µg/mL
same,MIC,[17]; [40],64 µg/mL
same,MIC,[18],64 µg/mL
same,MIC,[19]; [41],1 µg/mL
same,MIC,[19]; [42],1 µg/mL
same,MIC,[19]; [43],1 µg/mL
same,MIC,[19]; [44],1 µg/mL
N=C(N)NCCC[C@@H]1NC(=O)[C@H](CCCNC(=N)N)NC(=O)[C@H](CCCNC(=N)N)NC(=O)[C@@H]2CSSC[C@H](NC(=O)[C@H](CCCNC(=N)N)NC1=O)C(=O)N[C@@H](Cc1c[nH]c3ccccc13)C(=O)N[C@@H](Cc1c[nH]c3ccccc13)C(=O)N[C@@H](Cc1c[nH]c3ccccc13)C(=O)N[C@@H](Cc1c[nH]c3ccccc13)C(=O)N2 [[R3CW4CR] (IFX-330)] (cyclo(RRRCWWWWCR); disulfide 4-9),MIC,[2],32 µg/mL
same,MIC,[4]; ATCC BAA-2452,32 µg/mL
same,MIC,[5]; ATCC BAA-1605,32 µg/mL
same,MIC,[20],8 µg/mL
same,MIC,[21],16 µg/mL
same,MIC,[9]; ATCC 10145,64 µg/mL
same,MIC,[10]; ATCC 13883,32 µg/mL
same,MIC,[22],8 µg/mL
same,MIC,[11],32 µg/mL
same,MIC,[23],8 µg/mL
same,MIC,[24],8 µg/mL
same,MIC,[25],32 µg/mL
same,MIC,[13],128 µg/mL
same,MIC,[26],16 µg/mL
same,MIC,[27],32 µg/mL
same,MIC,[14]; ATCC BAA-1744,32 µg/mL
NC[C@H]1O[C@H](O[C@H]2[C@H](O)[C@@H](O[C@H]3O[C@H](CO)[C@@H](O)[C@H](N)[C@H]3O)[C@H](N)C[C@@H]2N)[C@H](O)[C@@H](O)[C@@H]1O [Kanamycin],MIC,[1]; Table 25,256 µg/mL
same,MIC,[16]; [33],32 µg/mL
same,MIC,[16]; [34],32 µg/mL
same,MIC,[16]; [35],32 µg/mL
same,MIC,[16]; [36],32 µg/mL
same,MIC of antibiotic,[6],64 µg/mL
same,MIC of antibiotics,[6],64 µg/mL
same,MIC of antibiotic,[7],32 µg/mL
same,MIC of antibiotic,[7]; Table 25,32 µg/mL
same,MIC of antibiotic,[7]; Table 26,32 µg/mL
same,MIC,[17]; [37],64 µg/mL
same,MIC,[17]; [38],64 µg/mL
same,MIC,[17]; [39],64 µg/mL
same,MIC,[17]; [40],64 µg/mL
same,MIC,[18],64 µg/mL
same,MIC,[19]; [41],> 64 µg/mL
same,MIC,[19]; [42],> 64 µg/mL
same,MIC,[19]; [43],> 64 µg/mL
same,MIC,[19]; [44],> 64 µg/mL
same,MIC,"[28]; read-out: MRSA (ATCC BAA-1556) MIC, Table 28, IFX-031, antibiotics alone and PHY-MIX (1:1 w/w)",> 64 µg/mL
same,MIC,"[28]; read-out: MRSA (ATCC BAA-1556) MIC, Table 29, [R6W4] (IFX-318), antibiotics alone and PHY-MIX (1:1 w/w)",> 64 µg/mL
same,MIC,"[28]; read-out: MRSA (ATCC BAA-1556) MIC, Table 30, [R5W4K] (IFX-315), antibiotics alone and PHY-MIX (1:1 w/w)",> 64 µg/mL
same,MIC,"[28]; read-out: MRSA (ATCC BAA-1556) MIC, Table 31, [R5W4] (IFX-301), antibiotics alone and PHY-MIX (1:1 w/w)",> 64 µg/mL

# Source: US20220289794A1, “SYNTHETIC ANTIMICROBIAL PEPTIDES” (priority 2019, published 2022)
